Each structure is given as a SMILES string.

T1 sequence (O14842 whole entry): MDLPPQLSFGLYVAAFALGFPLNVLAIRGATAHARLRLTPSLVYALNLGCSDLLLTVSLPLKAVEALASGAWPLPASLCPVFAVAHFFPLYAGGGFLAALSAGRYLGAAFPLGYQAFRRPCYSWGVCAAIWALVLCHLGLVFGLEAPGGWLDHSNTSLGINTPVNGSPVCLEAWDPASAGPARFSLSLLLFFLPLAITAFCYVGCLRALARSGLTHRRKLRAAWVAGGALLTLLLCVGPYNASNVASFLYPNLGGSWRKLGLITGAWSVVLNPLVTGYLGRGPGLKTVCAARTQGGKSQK

The experiment concerns the target T1, human GPR40 (Homo sapiens, UniProt O14842).
T1 construct: expressed in transfected cells; host or cells: CHO-K1
Put plainly: Induction of Ca2+ (calcium flux assay) using human GPR40 expression cell line. It counts as cell-based. The following applies: read-out: EC0.5. The protocol:
Evaluation of the Test Compounds for Induction of Ca^2+ Using Human GPR40 Expression Cell Line
The cell line expressing human GPR40 was generated by transfection of the GPR40 expression vector into CHO-K1 cell, and used in the following calcium flux assay.
The cell line was cultured in cell-culture medium (F-12 (Invitrogen) supplemented with 10% (v/v) FBS (Fetal Bovine Serum; Invitrogen), 0.5 mg/ml Geneticin (Invitrogen) and 1% (v/v) Antibiotic-Antimycotic solution (Invitrogen)) under the condition of 5% CO2 and 37° C. For calcium flux assay, the cells were diluted with the cell-culture medium to a concentration of 5×10^5 cells/ml, and the diluted cell suspension was dispensed in amount of 100 μl/well to a 96-well transparent bottom black polystyrene cell culture plate (Corning) and then cultured for 24 hours. The following concentrations of test compounds were added to these cells, and then the changes in intracellular calcium concentration were measured by FlexStation II384 (Molecular Devices). The following solution was prepared before the measurement.
First, a buffer solution for assay was prepared for use in the manufacture of fluorescent dye solution. This buffer solution was prepared by adding 1M HEPES solution (Invitrogen) to HBSS (Hanks' Balanced Salt Solution) (Invitrogen) and then adding 1M NaOH (Nacalai Tesque) to adjust pH to 7.4. Then the fluorescent dye solution was prepared according to the manufacturer's instruction attached to Calcium 5 Assay Kit (Molecular Devices), and the final DMSO concentration was adjusted to 2%.
The fluorescent dye solution was added in an amount of 100 μl/well to supernatant of the cell culture plate cultured for 24 hours. The plate was cultured for 1 hour under the condition of 5% CO2 and 37° C. so that the fluorescent dye was inserted into the cell.
Test compounds (i.e., the compounds prepared in the Examples) dissolved in dimethyl sulfoxide (DMSO ACROS) were diluted 200-fold in the buffer solution for assay to prepare compound solutions corresponding to the respective concentrations. […] 50 μl of the prepared sample solutions was added to each well of 96-well polypropylene plates (NUNC), and thereby a compound plate was prepared. Finally, the compound plate and the cell culture plate cultured for 1 hour with the fluorescent dye were placed in FlexStation II384.
After the above pre-treatment, the change in the intracellular calcium concentration when each concentration of the test compound solutions was added at 50 μl was measured by FlexStation II^384.
Then, the relative activity values depending on the concentration of the compound were plotted using Prism 4 software (GraphPad) to calculate the EC0.5 value.
A general note: A change in cytosolic calcium serves as a functional read-out for many receptors and channels.
As for `CC(C)n1ccc2ccc(CNc3ccc(CCC(=O)O)cc3)cc21` [Example 1], the EC50 stood at 100 nM.
As for `O=C(O)CCc1ccc(NCc2ccc3ccn(Cc4ccccc4)c3c2)cc1` [Example 2, 3-{4-[(1-benzyl-1H-indol-6-ylmethyl)-amino]-phenyl}-propanoic acid], the EC50 was 30 nM.
With `O=C(O)CCc1ccc(NCc2ccc3ccn(-c4ccsc4)c3c2)cc1` [Example 3, 3-{4-[(1-thiophen-3-yl-1H-indol-6-ylmethyl)-amino]-phenyl}-propanoic acid], the EC50 was found to be 10 nM.
`O=C(O)CCc1ccc(NCc2ccc3ccn(CCc4ccccc4)c3c2)cc1` [Example 4, 3-{4-[(1-phenethyl-1H-indol-6-ylmethyl)-amino]-phenyl}-propanoic acid]: the EC50 was 50 nM.
As to `O=C(O)CCc1ccc(NCc2ccc3c(Cl)cn(Cc4ccccc4)c3c2)cc1` [Example 5, 3-{4-[(1-benzyl-3-chloro-1H-indol-6-ylmethyl)-amino]-phenyl}-propanoic acid], the EC50 worked out at 30 nM.
`O=C(O)CCc1ccc(NCc2ccc3c(Cl)c(Cl)n(Cc4ccccc4)c3c2)cc1` [Example 6, 3-{4-[(1-benzyl-2,3-dichloro-1H-indol-6-ylmethyl)-amino]-phenyl}-propanoic acid]: the EC50 worked out at 100 nM.
The figure for `O=C(O)CCc1ccc(NCc2ccc3ccn(Cc4ccccc4)c3c2Cl)cc1` [Example 7, 3-{4-[(1-benzyl-7-chloro-1H-indol-6-ylmethyl)-amino]-phenyl}-propanoic acid] is 20 nM; for `O=C(O)CCc1ccc(NCc2ccc3ccn(-c4ccsc4)c3c2Cl)cc1` [Example 8, 3-{4-[(7-chloro-1-thiophen-3-yl-1H-indol-6-ylmethyl)-amino]-phenyl}-propanoic acid] it is at least 500 nM.
As for `O=C(O)CCc1ccc(NCc2ccc3ccn(-c4ccc(F)cc4)c3c2Cl)cc1` [Example 9, 3-(4-{[7-chloro-1-(4-fluoro-phenyl)-1H-indol-6-ylmethyl]-amino}-phenyl)-propanoic acid], the EC50 came out at 300 nM.
As for `O=C(O)CCc1ccc(NCc2ccc3ccn(-c4ccc(F)cc4)c3c2)cc1` [Example 10, 3-(4-{[1-(4-fluoro-phenyl)-1H-indol-6-ylmethyl]-amino}-phenyl)-propanoic acid], the EC50 is 700 nM.
With `O=C(O)CCc1ccc(NCc2ccc3ccn(CC4CCCCC4)c3c2Cl)cc1` [Example 11, 3-{4-[(7-chloro-1-cyclohexylmethyl-1H-indol-6-ylmethyl)-amino]-phenyl}-propanoic acid], the EC50 stood at 400 nM.
With `O=C(O)CC1COc2cc(OCc3ccc4c(Cl)cn(Cc5ccccc5)c4c3)ccc21` (stereo not shown) [Example 12, [6-(1-benzyl-3-chloro-1H-indol-6-ylmethoxy)-2,3-dihydro-benzofuran-3-yl]-acetic acid], the EC50 came to 160 nM.
With `O=C(O)CCc1ccc(OCc2ccc3ccn(-c4ccsc4)c3c2)cc1` [Example 13, 3-[4-(1-thiophen-3-yl-1H-indol-6-ylmethoxy)-phenyl]-propanoic acid], the EC50 was 20 nM.
The figure for `Cc1c(COc2ccc(CCC(=O)O)cc2)ccc2ccn(-c3ccc(F)cc3)c12` [Example 14, 3-{4-[1-(4-fluoro-phenyl)-7-methyl-1H-indol-6-ylmethoxy]-phenyl}-propanoic acid] is 30 nM.
`Cc1c(COc2ccc(CCC(=O)O)cc2)ccc2ccn(Cc3ccccc3)c12` [Example 15, 3-[4-(1-benzyl-7-methyl-1H-indol-6-ylmethoxy)-phenyl]-propanoic acid]: the EC50 stood at 10 nM.
Regarding `Cc1c(COc2ccc(CCC(=O)O)cc2)ccc2ccn(-c3ccsc3)c12` [Example 16, 3-[4-(7-methyl-1-thiophen-3-yl-1H-indol-6-ylmethoxy)-phenyl]-propanoic acid], the EC50 was 20 nM.
As for `Cc1cc(F)ccc1-n1ccc2ccc(COc3ccc(CCC(=O)O)cc3)cc21` [Example 17, 3-{4-[1-(4-fluoro-2-methyl-phenyl)-1H-indol-6-ylmethoxy]-phenyl}-propanoic acid], the EC50 worked out at 7 nM.
The figure for `O=C(O)CCc1ccc(OCc2ccc3ccn(Cc4ccccc4)c3c2Cl)cc1` [Example 18, 3-[4-(1-benzyl-7-chloro-1H-indol-6-ylmethoxy)-phenyl]-propanoic acid] is 90 nM.
The figure for `O=C(O)CCc1ccc(OCc2ccc3ccn(CC4CCCCC4)c3c2)cc1` [Example 19, 3-[4-(1-cyclohexylmethyl-1H-indol-6-ylmethoxy)-phenyl]-propanoic acid] is 400 nM; for `Cn1cc(Cc2ccccc2)c2cc(COc3ccc(CCC(=O)O)cc3)ccc21` [Example 20, 3-[4-(3-benzyl-1-methyl-1H-indol-5-ylmethoxy)-phenyl]-propanoic acid] it is 70 nM; for `Cc1ccccc1-c1cn(C)c2ccc(COc3ccc(CCC(=O)O)cc3)cc12` [Example 21, 3-[4-(1-methyl-3-o-tolyl-1H-indol-5-ylmethoxy)-phenyl]-propanoic acid] it is at least 500 nM.
For `Cc1cc(F)ccc1-n1cc(Cl)c2ccc(COc3ccc(CCC(=O)O)cc3)cc21` [Example 22, 3-{4-[3-chloro-1-(4-fluoro-2-methyl-phenyl)-1H-indol-6-ylmethoxy)-phenyl]-propanoic acid], the EC50 stood at 40 nM.
Turning to `Cc1cc(F)ccc1-n1ccc2cc(F)c(COc3ccc(CCC(=O)O)cc3)cc21` [Example 23, 3-{4-[5-fluoro-1-(4-fluoro-2-methyl-phenyl)-1H-indol-6-ylmethoxy)-phenyl]-propanoic acid], the EC50 worked out at 4 nM.
As to `Cc1cc(F)ccc1-n1ccc2ccc(COc3ccc4c(c3)OCC4CC(=O)O)cc21` (stereo not shown) [Example 24, {6-[1-(4-fluoro-2-methyl-phenyl)-1H-indol-6-ylmethoxy]-2,3-dihydro-benzofuran-3-yl}-acetic acid], the EC50 came to 20 nM.
As for `CC#C[C@@H](CC(=O)O)c1ccc(OCc2ccc3ccn(Cc4ccccc4)c3c2C)cc1` [Example 25, (S)-3-[4-(1-benzyl-7-methyl-1H-indol-6-ylmethoxy)-phenyl]-hex-4-ynoic acid], the EC50 is 20 nM.
The figure for `CC#C[C@@H](CC(=O)O)c1ccc(OCc2ccc3ccn(-c4ccc(F)cc4C)c3c2)cc1` [Example 26, (S)-3-{4-[1-(4-fluoro-2-methyl-phenyl)-1H-indol-6-ylmethoxy]-phenyl}-hex-4-ynoic acid] is 20 nM; for `CC#C[C@@H](CC(=O)O)c1ccc(OCc2ccc3ccn(Cc4ccc(S(C)(=O)=O)cc4)c3c2C)cc1` [Example 27, (S)-3-{4-[1-(4-methanesulfonyl-benzyl)-7-methyl-1H-indol-6-ylmethoxy]-phenyl}-hex-4-ynoic acid] it is 30 nM.
Turning to `CC#C[C@@H](CC(=O)O)c1ccc(OCc2ccc3ccn(Cc4ccc(OC)cc4)c3c2C)cc1` [Example 28, (S)-3-{4-[1-(4-methoxy-benzyl)-7-methyl-1H-indol-6-ylmethoxy]-phenyl}-hex-4-ynoic acid], the EC50 was 10 nM.
For the compound `CC#C[C@@H](CC(=O)O)c1ccc(OCc2ccc3ccn(Cc4ccc(C(F)(F)F)cc4)c3c2C)cc1` [Example 29, (S)-3-{4-[7-methyl-1-(4-trifluoromethyl-benzyl)-1H-indol-6-ylmethoxy]-phenyl}-hex-4-ynoic acid], the EC50 is 70 nM.
In the case of `CC#C[C@@H](CC(=O)O)c1ccc(OCc2ccc3ccn(Cc4cccc(COC)c4)c3c2C)cc1` [Example 30, (S)-3-{4-[1-(3-methoxymethyl-benzyl)-7-methyl-1H-indol-6-ylmethoxy]-phenyl}-hex-4-ynoic acid], the EC50 was found to be 40 nM.
The figure for `CC#C[C@@H](CC(=O)O)c1ccc(OCc2cccc3c2ccn3Cc2ccccc2)cc1` [Example 31, (S)-3-[4-(1-benzyl-1H-indol-4-ylmethoxy)-phenyl]-hex-4-ynoic acid] is 30 nM; for `CC#C[C@@H](CC(=O)O)c1ccc(OCc2cccc3c2ccn3-c2ccc(F)cc2C)cc1` [Example 32, (S)-3-{4-[1-(4-fluoro-2-methyl-phenyl)-1H-indol-4-ylmethoxy]-phenyl}-hex-4-ynoic acid] it is 40 nM; for `CC#C[C@@H](CC(=O)O)c1ccc(OCc2ccc3ccn(Cc4c(F)cccc4F)c3c2C)cc1` [Example 33, (S)-3-{4-[1-(2,6-difluoro-benzyl)-7-methyl-1H-indol-6-ylmethoxy]-phenyl}-hex-4-ynoic acid] it is 20 nM.
In the case of `CC#C[C@@H](CC(=O)O)c1ccc(OCc2ccc3cc(CCOC)n(Cc4ccccc4)c3c2)cc1` [Example 34, (S)-3-{4-[1-benzyl-2-(2-methoxy-ethyl)-1H-indol-6-ylmethoxy]-phenyl}-hex-4-ynoic acid], the EC50 was determined as 40 nM.

These data come from patent publication US9988379B2, “GPR40 receptor agonist, methods of preparing the same, and pharmaceutical compositions containing the same as an active agent” (LG CHEM, LTD., priority 2012, dated 2018).
